From US6355799B1, “Substituted benzene compounds, process for their preparation, and herbicidal and defoliant compositions containing them” (ISK Americas Incorporated, priority 1997, dated 2002)

Tests used:
Assay type in all cases: in vivo
[1] = test system: field corn (Zea mays L., var. Dekalb 535, CORN); test: Pre-emerge test, crop safety; conditions: pre-emerge, rated 14 days after application, 0 = no damage, 100 = complete death
Outline: (§1)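 Sandy loam pots; pre-emerge: sown 1 d pre-spray, surface-watered after, then bottom-watered. Post-emerge: sown 8–21 d before, 2–3 leaf stage, + 0.25% v/v NIS, bottom-watered. Acetone, 187 l/ha track spray, 15–1000 g ai/ha. 0–100 injury score, day 14.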

[2] = test system: upland rice (Oryza sp., var. Tebonnet, RICE); test: Pre-emerge test, crop safety; conditions: pre-emerge, rated 14 days after application, 0 = no damage, 100 = complete death
Outline: as §1

[3] = test system: redroot pigweed (Amaranthus retroflexus, AMARE); test: Pre-emerge test, greenhouse herbicide activity screening; conditions: pre-emerge, rated 14 days after application, 0 = no damage, 100 = complete death
Outline: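 Rating: 0–100 visual injury, 14 DAA. Application: acetone, 187 l/ha, 15–1000 g ai/ha, flat-fan track sprayer with nozzle 40–45 cm above soil or canopy. Post-emerge runs used 0.25% v/v surfactant on 2–3 leaf plants.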

[4] = test system: green foxtail (Setaria viridis, SETVI); test: Post-emerge test, greenhouse herbicide activity screening; conditions: phytotoxicity rating 0-100 (0 no damage, 100 complete death), 14 days after application
Outline: (§2)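 Compounds in acetone were track-sprayed at 15–1000 g ai/ha: pre-emergence onto soil sown the previous day, then top-watered to incorporate and later bottom-watered; post-emergence onto 2–3 leaf plants with 0.25% v/v surfactant, bottom-watered only. Ratings on a 0–100 phytotoxicity scale were taken at day 14.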

[5] = test system: common ragweed (Ambrosia artemisizfolia L., AMBEL); test: as above; conditions: phytotoxicity rating 0-100 (0 no damage, 100 complete death), 14 days after application
Outline: as §2

[6] = test system: redroot pigweed (Amaranthus retroflexus, AMARE); test: as above; conditions: phytotoxicity rating 0-100 (0 no damage, 100 complete death), 14 days after application
Outline: as §2

[7] = test system: velvetleaf (Abutilon theophrasti, ABUTH); test: as above; conditions: phytotoxicity rating 0-100 (0 no damage, 100 complete death), 14 days after application
Outline: as §2

[8] = test system: johnsongrass (Sorghum halepense, SORHA); test: as above; conditions: phytotoxicity rating 0-100 (0 no damage, 100 complete death), 14 days after application
Outline: as §2

[9] = test system: sicklepod (Cassia obtusifolia, CASOB); test: as above; conditions: phytotoxicity rating 0-100 (0 no damage, 100 complete death), 14 days after application
Outline: as §2

[10] = test system: large crabgrass (Digitaria sanguinalis, DIGSA); test: as above; conditions: phytotoxicity rating 0-100 (0 no damage, 100 complete death), 14 days after application
Outline: as §2

[11] = test system: barnyardgrass (Echinochloa crus-galli, ECHCG); test: as above; conditions: phytotoxicity rating 0-100 (0 no damage, 100 complete death), 14 days after application
Outline: as §2

[12] = test system: ivyleaf morningglory (Ipomoea hederacea, IPOHE); test: as above; conditions: phytotoxicity rating 0-100 (0 no damage, 100 complete death), 14 days after application
Outline: as §2

[13] = test system: lambsquarters (Chenopodium album, CHEAL); test: as above; conditions: phytotoxicity rating 0-100 (0 no damage, 100 complete death), 14 days after application
Outline: as §2

[14] = test system: field corn (Zea mays L., var. Dekalb 535, CORN); test: Post-emerge test, crop safety; conditions: phytotoxicity rating 0-100 (0 no damage, 100 complete death), 14 days after application
Outline: (§3)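 Compounds in acetone were track-sprayed at 187 l/ha, 15–1000 g ai/ha, onto sandy loam pots. Pre-emerge seeds were sown one day before spraying, with surface watering afterwards. Post-emerge plants were at the 2–3 leaf stage and sprayed with 0.25% v/v non-ionic surfactant. Injury was rated 0–100 at 14 days.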

[15] = test system: upland rice (Oryza sp., var. Tebonnet, RICE); test: Post-emerge test, crop safety; conditions: phytotoxicity rating 0-100 (0 no damage, 100 complete death), 14 days after application
Outline: as §3

[16] = test system: green foxtail (Setaria viridis, SETVI); test: Pre-emerge test, greenhouse herbicide activity screening; conditions: pre-emerge, rated 14 days after application, 0 = no damage, 100 = complete death
Outline: as §3

[17] = test system: common ragweed (Ambrosia artemisizfolia L., AMBEL); test: as above; conditions: pre-emerge, rated 14 days after application, 0 = no damage, 100 = complete death
Outline: as §3

[18] = test system: velvetleaf (Abutilon theophrasti, ABUTH); test: as above; conditions: pre-emerge, rated 14 days after application, 0 = no damage, 100 = complete death
Outline: as §3

[19] = test system: johnsongrass (Sorghum halepense, SORHA); test: as above; conditions: pre-emerge, rated 14 days after application, 0 = no damage, 100 = complete death
Outline: as §3

[20] = test system: sicklepod (Cassia obtusifolia, CASOB); test: as above; conditions: pre-emerge, rated 14 days after application, 0 = no damage, 100 = complete death
Outline: as §3

[21] = test system: large crabgrass (Digitaria sanguinalis, DIGSA); test: as above; conditions: pre-emerge, rated 14 days after application, 0 = no damage, 100 = complete death
Outline: as §3

[22] = test system: barnyardgrass (Echinochloa crus-galli, ECHCG); test: as above; conditions: pre-emerge, rated 14 days after application, 0 = no damage, 100 = complete death
Outline: as §3

[23] = test system: ivyleaf morningglory (Ipomoea hederacea, IPOHE); test: as above; conditions: pre-emerge, rated 14 days after application, 0 = no damage, 100 = complete death
Outline: as §3

[24] = test system: lambsquarters (Chenopodium album, CHEAL); test: as above; conditions: pre-emerge, rated 14 days after application, 0 = no damage, 100 = complete death
Outline: as §3

COC(=O)C(=O)Nc1c(OC)c(Cl)cc(F)c1-n1c(=O)cc(C(F)(F)F)n(C)c1=O [2-15]
20: Post-emerge Herbicidal Activity AMARE ([6]; 250 g ai/ha) | Pre-emerge Herbicidal Activity ABUTH (phytotoxicity rating, scale 0-100) ([18]; 63 g ai/ha) | Pre-emerge Herbicidal Activity IPOHE (phytotoxicity rating, scale 0-100) ([23]; 63 g ai/ha)
70: Post-emerge Herbicidal Activity ABUTH ([7]; 63 g ai/ha)
40: Post-emerge Herbicidal Activity AMBEL ([5]; 250 g ai/ha) | Post-emerge Herbicidal Activity IPOHE ([12]; 63 g ai/ha) | Post-emerge Herbicidal Activity CHEAL ([13]; 63 g ai/ha) | Pre-emerge Herbicidal Activity CHEAL (phytotoxicity rating, scale 0-100) ([24]; 250 g ai/ha)
80: Pre-emerge Herbicidal Activity AMARE (phytotoxicity rating, scale 0-100) ([3]; 250 g ai/ha)
30: Pre-emerge Herbicidal Activity IPOHE (phytotoxicity rating, scale 0-100) ([23]; 250 g ai/ha)
60: Post-emerge Herbicidal Activity CHEAL ([13]; 250 g ai/ha) | Pre-emerge Herbicidal Activity CHEAL (phytotoxicity rating, scale 0-100) ([24]; 63 g ai/ha)
90: Post-emerge Herbicidal Activity ABUTH ([7]; 250 g ai/ha) | Post-emerge Herbicidal Activity IPOHE ([12]; 250 g ai/ha) | Pre-emerge Herbicidal Activity ABUTH (phytotoxicity rating, scale 0-100) ([18]; 250 g ai/ha)
0: Pre-emerge crop damage CORN (phytotoxicity rating, scale 0-100) ([1]; 63 g ai/ha) | Pre-emerge crop damage CORN (phytotoxicity rating, scale 0-100) ([1]; 250 g ai/ha) | Pre-emerge crop damage RICE (phytotoxicity rating, scale 0-100) ([2]; 250 g ai/ha) | Pre-emerge Herbicidal Activity AMARE (phytotoxicity rating, scale 0-100) ([3]; 63 g ai/ha) | Post-emerge Herbicidal Activity SETVI ([4]; 63 g ai/ha) | Post-emerge Herbicidal Activity SETVI ([4]; 250 g ai/ha) | Post-emerge Herbicidal Activity AMARE ([6]; 63 g ai/ha) | Post-emerge Herbicidal Activity SORHA ([8]; 63 g ai/ha) | Post-emerge Herbicidal Activity SORHA ([8]; 250 g ai/ha) | Post-emerge Herbicidal Activity DIGSA ([10]; 63 g ai/ha) | Post-emerge Herbicidal Activity DIGSA ([10]; 250 g ai/ha) | Post-emerge Herbicidal Activity ECHCG ([11]; 63 g ai/ha) | Post-emerge Herbicidal Activity ECHCG ([11]; 250 g ai/ha) | Post-emerge Herbicidal Activity CORN (crop damage) ([14]; 63 g ai/ha) | Post-emerge Herbicidal Activity CORN (crop damage) ([14]; 250 g ai/ha) | Post-emerge Herbicidal Activity RICE (crop damage) ([15]; 63 g ai/ha) | Post-emerge Herbicidal Activity RICE (crop damage) ([15]; 250 g ai/ha) | Pre-emerge Herbicidal Activity SETVI (phytotoxicity rating, scale 0-100) ([16]; 63 g ai/ha) | Pre-emerge Herbicidal Activity SETVI (phytotoxicity rating, scale 0-100) ([16]; 250 g ai/ha) | Pre-emerge Herbicidal Activity AMBEL (phytotoxicity rating, scale 0-100) ([17]; 63 g ai/ha) | Pre-emerge Herbicidal Activity AMBEL (phytotoxicity rating, scale 0-100) ([17]; 250 g ai/ha) | Pre-emerge Herbicidal Activity SORHA (phytotoxicity rating, scale 0-100) ([19]; 63 g ai/ha) | Pre-emerge Herbicidal Activity SORHA (phytotoxicity rating, scale 0-100) ([19]; 250 g ai/ha) | Pre-emerge Herbicidal Activity CASOB (phytotoxicity rating, scale 0-100) ([20]; 63 g ai/ha) | Pre-emerge Herbicidal Activity CASOB (phytotoxicity rating, scale 0-100) ([20]; 250 g ai/ha) | Pre-emerge Herbicidal Activity DIGSA (phytotoxicity rating, scale 0-100) ([21]; 63 g ai/ha) | Pre-emerge Herbicidal Activity DIGSA (phytotoxicity rating, scale 0-100) ([21]; 250 g ai/ha) | Pre-emerge Herbicidal Activity ECHCG (phytotoxicity rating, scale 0-100) ([22]; 63 g ai/ha) | Pre-emerge Herbicidal Activity ECHCG (phytotoxicity rating, scale 0-100) ([22]; 250 g ai/ha)
10: Pre-emerge crop damage RICE (phytotoxicity rating, scale 0-100) ([2]; 63 g ai/ha) | Post-emerge Herbicidal Activity AMBEL ([5]; 63 g ai/ha) | Post-emerge Herbicidal Activity CASOB ([9]; 63 g ai/ha) | Post-emerge Herbicidal Activity CASOB ([9]; 250 g ai/ha)
